Laboratory results reported in patent US20140018426A1, “FOOD OR BEVERAGE COMPOSITION FORTIFIED WITH THYRONAMINES AND/OR THYRONAMINE PRECURSORS” (priority 2009, published 2014).
Values joined by “and” are separate entries in the source; they are usually repeats but may differ in a detail not shown here. Equal values may be shown once. Read-outs that look alike come from different tables or passages of the source.

How the values were obtained:
[1] = system: hypercholesterolemic patients; conditions: cited from earlier work; for decrease in body weight: 300 mg daily for 8 months
[2] = system: mice; conditions: cited from earlier work
[3] = system: rat working heart preparation; conditions: cited from earlier work
[4] = target: norepenephrin transporter (Homo sapiens, UniProt P23975); conditions: cited from earlier work
[5] = system: mice; conditions: single dose T1AM (normal 0.83); cited from earlier work
[6] = target: dopamine transporter (Homo sapiens, UniProt Q01959); conditions: cited from earlier work
[7] = target: serotonin 5HT-2c receptor (Homo sapiens, UniProt P28335); conditions: cited from earlier work
[8] = target: trace amine-associated receptor 1 (TAAR1) (Homo sapiens, UniProt Q96RJ0); conditions: cited from earlier work
[9] = system: mice; conditions: cited from earlier work; remark: listed apart in the source
[10] = target: alpha-2A adrenergic receptor (Homo sapiens, UniProt P08913); conditions: cited from earlier work
[11] = system: vesicular monoamine transporter; conditions: cited from earlier work
[12] = system: Siberian hamsters (Phodopus sungorus); conditions: cited from earlier work
[13] = target: serotonin transporter (Homo sapiens, UniProt P31645); conditions: cited from earlier work
[14] = system: middle cerebral artery occlusion (MCAO) stroke model in mice; conditions: cited from earlier work
[15] = system: TR β gene expression; conditions: cited from earlier work
[16] = system: C57; assay: Serum triglycerides, C57 mice on Western Diet, daily oral T2; assay type: in vivo; conditions: C57, low and high dose T2
Excerpt: (§1) Mice in the study were fed a standard lab chow referred to as the “Western Diet.” The overall level of fat and the saturated nature of the fat are representative diets typical in the industrialized west that are linked to risk of cardiovascular disease in humans. The formula is used primarily with genetically manipulated rodent models that are susceptible to high cholesterol and cardiovascular disease. The diet may also be useful in diet-induced obesity, diabetes, and metabolic syndrome models. High cholesterol, obesity, and diabetes are each associated increased risk for cardiovascular disease. The composition of the Western Diet is shown below in Table 1.
(§2) C57 is a wild-type strain, LDLr+/− are a strain carrying one functional copy of the LDLr gene, and the LDLrO animals are total LDLr knockouts. The LDLr gene encodes for the LDL receptor protein, which is responsible for scavenging LDL with bound cholesterol from the blood and transporting it into cells. Both heterozygous and homozygous LDLr knockout animals develop very high serum cholesterol levels and are considered to be a good model for heterozygous and homozygous familial hypercholesterolemia in humans.
(§3) LDLr knockout animals have zero LDL receptor function. […] This effect was independent of weight loss.

[17] = system: growth hormone gene expression; conditions: cited from earlier work
[18] = system: LDLr0; assay: Blood Sugar (serum glucose), LDLr knockout mice on Western Diet, daily oral T2; assay type: in vivo; conditions: for Blood Sugar, individual animal: LDLr0 mice, Western Diet
Excerpt: as §1, §2, §3

[19] = system: LDLr0; assay: Serum triglycerides, LDLr knockout mice on Western Diet, daily oral T2; assay type: in vivo; conditions: low and high dose T2
Excerpt: as §1, §2, §3

[20] = system: rats; conditions: 250 mcg/kg p.o. q.d. for 30 days, compared to controls; cited from earlier work
[21] = Body weight, C57 mice on Western Diet, daily oral T2; assay type: in vivo
Excerpt: as §1, §2, §3

[22] = system: LDLr+/−; assay: Serum triglycerides, LDLr+/− mice on Western Diet, daily oral T2; assay type: in vivo; conditions: low and high dose T2
Excerpt: as §1, §2, §3

[23] = system: LDLr+/−; assay: Blood Sugar (serum glucose), LDLr+/− mice on Western Diet, daily oral T2; assay type: in vivo; conditions: for Blood Sugar, individual animal: LDLr+/− mice, Western Diet
Excerpt: as §1, §2, §3

[24] = Body weight, LDLr+/− mice on Western Diet, daily oral T2; assay type: in vivo; parameters: Body weight, Ave: unit not given here
Excerpt: as §1, §2, §3

[25] = system: C57; assay: Blood Sugar (serum glucose), C57 mice on Western Diet, daily oral T2; assay type: in vivo; conditions: for Blood Sugar, individual animal: C57 mice, Western Diet
Excerpt: as §1, §2, §3

[26] = Body weight, LDLr knockout mice on Western Diet, daily oral T2; assay type: in vivo
Excerpt: as §1, §2, §3

[27] = system: thyroid receptor homodimer; conditions: in contrast to T3; cited from earlier work
[28] = system: TR α1, β1 and β2; conditions: in vitro studies; cited from earlier work

Sequence of alpha-2A adrenergic receptor (P08913 whole entry): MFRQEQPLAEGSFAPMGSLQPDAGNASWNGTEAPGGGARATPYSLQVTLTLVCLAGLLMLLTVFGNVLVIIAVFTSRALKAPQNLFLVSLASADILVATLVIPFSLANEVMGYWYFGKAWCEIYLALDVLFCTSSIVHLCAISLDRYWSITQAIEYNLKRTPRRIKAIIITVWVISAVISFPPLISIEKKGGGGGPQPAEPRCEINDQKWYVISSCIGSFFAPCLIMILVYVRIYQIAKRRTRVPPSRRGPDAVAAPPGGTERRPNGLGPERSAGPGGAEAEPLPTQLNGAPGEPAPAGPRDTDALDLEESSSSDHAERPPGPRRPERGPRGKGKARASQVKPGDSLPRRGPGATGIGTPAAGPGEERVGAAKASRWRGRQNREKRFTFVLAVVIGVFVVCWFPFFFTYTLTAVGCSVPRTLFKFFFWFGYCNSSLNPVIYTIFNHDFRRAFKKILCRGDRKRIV
Sequence of dopamine transporter (Q01959 whole entry): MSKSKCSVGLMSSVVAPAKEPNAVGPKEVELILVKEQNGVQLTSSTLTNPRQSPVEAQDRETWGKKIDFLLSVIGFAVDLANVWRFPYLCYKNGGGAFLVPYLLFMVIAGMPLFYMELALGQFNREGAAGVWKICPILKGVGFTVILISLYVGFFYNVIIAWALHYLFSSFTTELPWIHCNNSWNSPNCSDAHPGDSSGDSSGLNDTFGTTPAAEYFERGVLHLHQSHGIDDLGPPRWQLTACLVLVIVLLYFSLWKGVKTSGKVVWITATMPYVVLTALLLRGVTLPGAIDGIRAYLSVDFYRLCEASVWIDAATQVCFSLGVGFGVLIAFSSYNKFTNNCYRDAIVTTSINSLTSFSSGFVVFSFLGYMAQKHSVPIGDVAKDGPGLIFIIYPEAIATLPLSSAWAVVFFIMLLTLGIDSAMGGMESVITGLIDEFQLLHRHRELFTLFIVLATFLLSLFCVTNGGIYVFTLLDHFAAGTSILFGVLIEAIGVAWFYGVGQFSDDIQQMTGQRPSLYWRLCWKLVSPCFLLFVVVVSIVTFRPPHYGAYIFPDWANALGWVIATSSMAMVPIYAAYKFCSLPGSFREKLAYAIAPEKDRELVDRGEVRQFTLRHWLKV
Sequence of norepenephrin transporter (P23975 whole entry): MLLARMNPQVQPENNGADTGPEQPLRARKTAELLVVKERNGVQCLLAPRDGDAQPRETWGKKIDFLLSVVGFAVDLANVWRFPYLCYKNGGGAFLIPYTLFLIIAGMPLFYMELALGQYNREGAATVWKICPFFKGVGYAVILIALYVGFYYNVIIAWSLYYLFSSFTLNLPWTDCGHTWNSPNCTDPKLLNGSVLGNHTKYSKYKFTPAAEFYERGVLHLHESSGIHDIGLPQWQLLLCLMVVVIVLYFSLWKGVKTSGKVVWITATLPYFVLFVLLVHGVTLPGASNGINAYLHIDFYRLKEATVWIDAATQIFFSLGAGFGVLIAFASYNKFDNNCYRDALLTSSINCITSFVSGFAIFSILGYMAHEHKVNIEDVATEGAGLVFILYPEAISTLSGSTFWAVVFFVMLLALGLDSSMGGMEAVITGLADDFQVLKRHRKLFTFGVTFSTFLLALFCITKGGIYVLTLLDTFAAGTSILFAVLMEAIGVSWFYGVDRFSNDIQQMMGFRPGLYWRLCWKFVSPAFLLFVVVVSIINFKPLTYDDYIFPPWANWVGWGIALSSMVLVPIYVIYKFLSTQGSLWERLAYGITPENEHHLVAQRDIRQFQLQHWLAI
Sequence of trace amine-associated receptor 1 (TAAR1) (Q96RJ0 whole entry, species assumed): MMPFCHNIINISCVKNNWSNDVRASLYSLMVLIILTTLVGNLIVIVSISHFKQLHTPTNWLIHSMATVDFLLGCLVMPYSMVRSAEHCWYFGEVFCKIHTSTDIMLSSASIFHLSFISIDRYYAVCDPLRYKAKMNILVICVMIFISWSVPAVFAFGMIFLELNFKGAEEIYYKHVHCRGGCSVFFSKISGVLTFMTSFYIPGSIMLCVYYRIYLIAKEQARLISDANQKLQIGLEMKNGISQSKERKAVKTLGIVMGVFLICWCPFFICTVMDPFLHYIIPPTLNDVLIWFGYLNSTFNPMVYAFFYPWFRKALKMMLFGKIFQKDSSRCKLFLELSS
Sequence of serotonin 5HT-2c receptor (P28335 33-458): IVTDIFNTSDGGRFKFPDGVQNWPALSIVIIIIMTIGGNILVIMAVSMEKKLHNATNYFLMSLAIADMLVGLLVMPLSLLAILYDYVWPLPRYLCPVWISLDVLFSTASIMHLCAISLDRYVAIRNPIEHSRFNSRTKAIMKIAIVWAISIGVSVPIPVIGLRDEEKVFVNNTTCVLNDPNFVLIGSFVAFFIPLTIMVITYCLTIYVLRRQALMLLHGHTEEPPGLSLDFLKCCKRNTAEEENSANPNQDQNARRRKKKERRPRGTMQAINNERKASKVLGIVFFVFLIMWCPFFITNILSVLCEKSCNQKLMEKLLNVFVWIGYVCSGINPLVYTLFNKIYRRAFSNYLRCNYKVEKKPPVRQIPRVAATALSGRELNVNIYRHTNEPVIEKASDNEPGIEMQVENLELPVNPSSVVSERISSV
Sequence of serotonin transporter (P31645 whole entry): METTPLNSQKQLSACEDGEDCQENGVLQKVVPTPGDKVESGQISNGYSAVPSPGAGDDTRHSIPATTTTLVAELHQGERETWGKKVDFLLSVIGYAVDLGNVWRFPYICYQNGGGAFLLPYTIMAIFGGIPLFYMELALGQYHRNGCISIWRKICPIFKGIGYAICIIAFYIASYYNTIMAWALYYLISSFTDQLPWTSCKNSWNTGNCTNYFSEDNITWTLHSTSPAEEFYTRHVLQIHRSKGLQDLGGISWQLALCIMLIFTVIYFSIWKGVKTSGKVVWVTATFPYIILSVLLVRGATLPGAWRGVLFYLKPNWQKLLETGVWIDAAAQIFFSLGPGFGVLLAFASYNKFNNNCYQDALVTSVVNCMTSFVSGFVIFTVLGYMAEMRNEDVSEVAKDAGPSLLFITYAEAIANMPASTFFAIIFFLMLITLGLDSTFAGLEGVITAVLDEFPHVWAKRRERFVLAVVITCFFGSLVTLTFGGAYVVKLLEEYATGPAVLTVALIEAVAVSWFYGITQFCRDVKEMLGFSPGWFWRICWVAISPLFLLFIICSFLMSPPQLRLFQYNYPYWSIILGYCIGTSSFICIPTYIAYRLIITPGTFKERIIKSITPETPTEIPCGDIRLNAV

SMILES: N[C@H](Cc1cc(I)c(Oc2ccc(O)cc2)c(I)c1)C(=O)O [3,5-D-T2]
- patients with coronary artery disease with increased anginal symptoms ([1]; 300 mg daily): 7 of 13
- total serum cholesterol decrease ([1]; at 20 weeks, 300 mg daily): 20%
- decrease in body weight ([1]; euthyroid subjects): 5%
- effect of doses of less than 250 mg/day ([1]; human, in vivo): ineffective
- decrease in body weight ([1]; hypothyroid patients): 8%
- mean heart rate on treatment ([1]; increase from 76, 300 mg daily): 88 beats per minute

SMILES: NCCc1ccc(Oc2ccc(O)cc2)cc1 [T0AM, thyronamine]
- potency on body temperature compared with T1AM ([2]; similar results reported as for T1AM): less potent
- potency as compared to T1AM (fold less potent) ([3]; rat working heart preparation): about 10 fold

SMILES: NCCc1ccc(Oc2ccc(O)cc2)c(I)c1 [T1AM, 3-iodothyronamine]
- norepenephrin transporter function [4]: binds and inhibits
- respiratory quotient (RQ) value [5]: approximately 0.7
- dopamine transporter function [6]: binds and inhibits
- serotonin 5HT-2c receptor activity [7]: agonist
- TAAR1 activity [8]: potent agonist
- time for body temperature to return to normal ([2]; mice, depending on the T1AM dose): 4 to 6 h
- drop in body temperature ([2]; mice, injection): about 10 °C
- time of body temperature nadir after injection ([2]; mice): about 1 hour
- time for blood glucose to return to baseline [9]: 3 to 4 h
- time of blood glucose peak after the injection [9]: 1 h
- increased blood glucose ([9]; injection, at peak): 2-5 fold
- alpha-2A adrenergic receptor activity [10]: agonist
- vesicular monoamine transporter function [11]: binds and inhibits
- respiratory quotient (RQ) value ([12]; Siberian hamsters, single dose T1AM (normal 0.90)): approximately 0.7
- time of urine ketone content peak post-injection ([12]; Siberian hamsters): 16 h
- time to complete RQ shift post-injection ([12]; in vivo): about 4.5 hours
- persistence of 0.7 RQ after the T1AM injection ([12]; summer acclimatized Siberian hamsters): at least 24 h
- heart rate and systolic aortic pressure ([3]; rat working heart at 37° C., compound in perfusion buffer): large and immediate decreases
- serotonin transporter function [13]: binds and inhibits
- reduction of infarct volume [14]: 40%

SMILES: N[C@@H](Cc1cc(I)c(Oc2ccc(O)cc2)c(I)c1)C(=O)O [T2, (2S)-2-amino-3-[4-(4-hydroxyphenoxy)-3,5-diiodophenyl]propanoic acid]
- less potent than T3 in decreasing TR β gene expression [15]: 50%
- effect on serum triglyceride levels [16]: did not affect
- potency relative to T3 in increasing growth hormone gene expression [17]: 1/100
- Blood Sugar, individual animal ([18]; 1 Week High Dose T2): 87
- Blood Sugar, individual animal ([18]; 1 Week Low Dose T2): 54 and 79
- lower blood sugar levels, average ([18]; all genetic groups (LDLr knockout), high doses of T2, vs controls): 45-50%
- effect on serum triglyceride levels [19]: did not affect
- decrease body weight [20]: 13%
- decrease hepatic fat mass [20]: 50%
- increase hepatic fat oxidation [20]: 42%
- lower cholesterol [20]: 18%
- lower serum triglycerides [20]: 52%
- Body weight, Ave ([21]; C57, High Dose T2, Day 1, group average): 28.1 g
- Body weight ([21]; C57, High Dose T2, Day 1, individual animal): 29.6 (2×) and 24.9 and 26.7
- Body weight ([21]; C57, High Dose T2, Day 2, individual animal, in g (unit assumed)): 29.5 and 25.8 and 29.7
- Body weight ([21]; C57, High Dose T2, Day 3, individual animal, in g (unit assumed)): 25.1 and 29.9 and 27.2
- Body weight ([21]; C57, High Dose T2, Day 4, individual animal, in g (unit assumed)): 29.1 and 28.7
- Body weight ([21]; C57, High Dose T2, Day 5, individual animal, in g (unit assumed)): 29.1 and 28.5
- Body weight ([21]; C57, Low Dose T2, Day 2, individual animal): 24.9
- Body weight ([21]; C57, Low Dose T2, Day 4, individual animal): 25.1
- Body weight ([21]; C57, Low Dose T2, Day 6, individual animal): 29.9 and 24.8 and 28.7
- effect on weight gain ([21]; C57, low and high dose T2): did not affect
- effect on serum triglyceride levels [22]: did not affect
- Blood Sugar, individual animal ([23]; 1 Week High Dose T2): 99 and 94 and 80
- Blood Sugar, individual animal ([23]; 1 Week Low Dose T2): 210
- lower blood sugar levels, average ([23]; all genetic groups (LDLr+/−), high doses of T2, vs controls): 45-50%
- Body weight ([24]; High Dose T2, Day 1, individual animal, in g (unit assumed)): 31.4
- Body weight ([24]; High Dose T2, Day 2, individual animal, in g (unit assumed)): 31.0 and 29.1 and 29.9
- Body weight ([24]; High Dose T2, Day 4, individual animal, in g (unit assumed)): 29.0 and 27.9
- Body weight, Ave ([24]; Low Dose T2, Day 2, group average): 28.1
- Body weight ([24]; Low Dose T2, Day 2, individual animal): 282
- Body weight ([24]; Low Dose T2, Day 3, individual animal): 29.7 and 31.4
- Body weight ([24]; Low Dose T2, Day 4, individual animal): 27.4
- Body weight ([24]; Low Dose T2, Day 5, individual animal): 29.5
- Body weight ([24]; Low Dose T2, Day 6, individual animal): 29.1
- Body weight ([24]; Low Dose T2, Day 7, individual animal): 31.0 and 29.6 (2×) and 28.2
- effect on weight gain ([24]; low and high dose T2): did not affect
- Blood Sugar, individual animal ([25]; 1 Week High Dose T2): 74 and 120 and 92
- Blood Sugar, individual animal ([25]; 1 Week Low Dose T2): 190 and 120
- lower blood sugar levels, average ([25]; all genetic groups (C57), high doses of T2, vs controls): 45-50%
- Body weight ([26]; LDLr0, High Dose T2, Day 1, individual animal, in g (unit assumed)): 27.4
- Body weight ([26]; LDLr0, High Dose T2, Day 2, individual animal, in g (unit assumed)): 23.1 and 24.8
- Body weight ([26]; LDLr0, High Dose T2, Day 3, individual animal, in g (unit assumed)): 22.8
- Body weight ([26]; LDLr0, High Dose T2, Day 4, individual animal, in g (unit assumed)): 24.8
- Body weight ([26]; LDLr0, High Dose T2, Day 5, individual animal, in g (unit assumed)): 23.1
- Body weight ([26]; LDLr0, Low Dose T2, Day 6, individual animal): 23.1
- effect on weight gain ([26]; LDLr knockout, low and high dose T2): did not affect
- effect on thyroid receptor homodimer formation [27]: no effect

SMILES: N[C@@H](Cc1cc(I)c(Oc2ccc(O)c(I)c2)c(I)c1)C(=O)O [T3, (2S)-2-amino-3-[4-(4-hydroxy-3-iodophenoxy)-3,5-diiodophenyl]propanoic acid]
- affinity for TR α1, β1 and β2, fold greater than that of T2 [28]: 40-500 fold
